{
  "source": "PubChem BioAssay AID1963964",
  "about": "(Molecular Pharmacology Branch, DTP, NCI, 2024);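 further: spheroids exposed to compounds for seven days before readout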",
  "test_system": "997726-040-R-J2-PDC tumor spheroids, viability",
  "assay": "Anticancer human tumor 997726-040-R-J2-PDC patient-derived squamous cell lung carcinoma cell line growth inhibition [PI3K]",
  "conditions": "spheroids with HUVEC and MSC; for IC50: curve of first compound; for viability, T/C: stronger effect = lower value",
  "summary_of_the_method": "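Tumor cells grown as multi-cell spheroids with HUVEC endothelial cells and MSC fibroblast-like stroma were treated with targeted agents combined with inavolisib, alpelisib, duvelisib or copanlisib. Doses fell in half-log steps from near clinical Cmax, else from 10 microM. Viability was measured.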",
  "key": {"[1]": {"conditions": "second compound 0.00316 µM, first compound 0.0316 µM"}, "[2]": {"conditions": "second compound 0.00316 µM, first compound 0.1 µM"}, "[3]": {"conditions": "second compound 0.00316 µM, first compound 0.316 µM"}, "[4]": {"conditions": "second compound 0.00316 µM, first compound 1 µM"}, "[5]": {"conditions": "second compound 0.00316 µM, first compound 3.16 µM"}, "[6]": {"conditions": "second compound 0.00316 µM, first compound 10 µM"}, "[7]": {"conditions": "second compound 0.01 µM, first compound 0.0316 µM"}, "[8]": {"conditions": "second compound 0.01 µM, first compound 0.1 µM"}, "[9]": {"conditions": "second compound 0.01 µM, first compound 0.316 µM"}, "[10]": {"conditions": "second compound 0.01 µM, first compound 1 µM"}, "[11]": {"conditions": "second compound 0.01 µM, first compound 3.16 µM"}, "[12]": {"conditions": "second compound 0.01 µM, first compound 10 µM"}, "[13]": {"conditions": "second compound 0.0316 µM, first compound 0.0316 µM"}, "[14]": {"conditions": "second compound 0.0316 µM, first compound 0.1 µM"}, "[15]": {"conditions": "second compound 0.0316 µM, first compound 0.316 µM"}, "[16]": {"conditions": "second compound 0.0316 µM, first compound 1 µM"}, "[17]": {"conditions": "second compound 0.0316 µM, first compound 3.16 µM"}, "[18]": {"conditions": "second compound 0.0316 µM, first compound 10 µM"}, "[19]": {"conditions": "second compound 0.1 µM, first compound 0.0316 µM"}, "[20]": {"conditions": "second compound 0.1 µM, first compound 0.1 µM"}, "[21]": {"conditions": "second compound 0.1 µM, first compound 0.316 µM"}, "[22]": {"conditions": "second compound 0.1 µM, first compound 1 µM"}, "[23]": {"conditions": "second compound 0.1 µM, first compound 3.16 µM"}, "[24]": {"conditions": "second compound 0.1 µM, first compound 10 µM"}, "[25]": {"conditions": "second compound 0.316 µM, first compound 0.0316 µM"}, "[26]": {"conditions": "second compound 0.316 µM, first compound 0.1 µM"}, "[27]": {"conditions": "second compound 0.316 µM, first compound 0.316 µM"}, "[28]": {"conditions": "second compound 0.316 µM, first compound 1 µM"}, "[29]": {"conditions": "second compound 0.316 µM, first compound 3.16 µM"}, "[30]": {"conditions": "second compound 0.316 µM, first compound 10 µM"}, "[31]": {"conditions": "second compound 1 µM, first compound 0.0316 µM"}, "[32]": {"conditions": "second compound 1 µM, first compound 0.1 µM"}, "[33]": {"conditions": "second compound 1 µM, first compound 0.316 µM"}, "[34]": {"conditions": "second compound 1 µM, first compound 1 µM"}, "[35]": {"conditions": "second compound 1 µM, first compound 3.16 µM"}, "[36]": {"conditions": "second compound 1 µM, first compound 10 µM"}},
  "data": [
    {"smiles": "CC(Cn1ccc(-c2ccc(C#N)c(Cl)c2)n1)NC(=O)c1cc(C(C)O)[nH]n1", "note": "(centres undefined) + COc1c(OCCCN2CCOCC2)ccc2c3n(c(=NC(=O)c4cnc(N)nc4)nc12)CCN3", "values": [
      {"measurement": "IC50", "setting": "second compound 0.00316 µM", "value": "> 10000", "unit": "nM"},
      {"measurement": "IC50", "setting": "second compound 0.01 µM", "value": "> 10000", "unit": "nM"},
      {"measurement": "IC50", "setting": "second compound 0.0316 µM", "value": "< 31.6", "unit": "nM"},
      {"measurement": "IC50", "setting": "second compound 0.1 µM", "value": "< 31.6", "unit": "nM"},
      {"measurement": "IC50", "setting": "second compound 0.316 µM", "value": "< 31.6", "unit": "nM"},
      {"measurement": "IC50", "setting": "second compound 1 µM", "value": "< 31.6", "unit": "nM"},
      {"measurement": "viability, T/C", "setting": "[1]", "value": 69.7, "unit": "%"},
      {"measurement": "viability, T/C", "setting": "[2]", "value": 67, "unit": "%"},
      {"measurement": "viability, T/C", "setting": "[3]", "value": 78.8, "unit": "%"},
      {"measurement": "viability, T/C", "setting": "[4]", "value": 78.8, "unit": "%"},
      {"measurement": "viability, T/C", "setting": "[5]", "value": 82.3, "unit": "%"},
      {"measurement": "viability, T/C", "setting": "[6]", "value": 74, "unit": "%"},
      {"measurement": "viability, T/C", "setting": "[7]", "value": 57.3, "unit": "%"},
      {"measurement": "viability, T/C", "setting": "[8]", "value": 60.4, "unit": "%"},
      {"measurement": "viability, T/C", "setting": "[9]", "value": 59.9, "unit": "%"},
      {"measurement": "viability, T/C", "setting": "[10]", "value": 56.1, "unit": "%"},
      {"measurement": "viability, T/C", "setting": "[11]", "value": 54.6, "unit": "%"},
      {"measurement": "viability, T/C", "setting": "[12]", "value": 54.8, "unit": "%"},
      {"measurement": "viability, T/C", "setting": "[13]", "value": 35.7, "unit": "%"},
      {"measurement": "viability, T/C", "setting": "[14]", "value": 36.3, "unit": "%"},
      {"measurement": "viability, T/C", "setting": "[15]", "value": 41, "unit": "%"},
      {"measurement": "viability, T/C", "setting": "[16]", "value": 33.6, "unit": "%"},
      {"measurement": "viability, T/C", "setting": "[17]", "value": 37.6, "unit": "%"},
      {"measurement": "viability, T/C", "setting": "[18]", "value": 37.2, "unit": "%"},
      {"measurement": "viability, T/C", "setting": "[19]", "value": 23, "unit": "%"},
      {"measurement": "viability, T/C", "setting": "[20]", "value": 21.4, "unit": "%"},
      {"measurement": "viability, T/C", "setting": "[21]", "value": 21.5, "unit": "%"},
      {"measurement": "viability, T/C", "setting": "[22]", "value": 24.5, "unit": "%"},
      {"measurement": "viability, T/C", "setting": "[23]", "value": 22.6, "unit": "%"},
      {"measurement": "viability, T/C", "setting": "[24]", "value": 22.9, "unit": "%"},
      {"measurement": "viability, T/C", "setting": "[25]", "value": 4.78, "unit": "%"},
      {"measurement": "viability, T/C", "setting": "[26]", "value": 4.57, "unit": "%"},
      {"measurement": "viability, T/C", "setting": "[27]", "value": 5.76, "unit": "%"},
      {"measurement": "viability, T/C", "setting": "[28]", "value": 6.82, "unit": "%"},
      {"measurement": "viability, T/C", "setting": "[29]", "value": 4.57, "unit": "%"},
      {"measurement": "viability, T/C", "setting": "[30]", "value": 5.74, "unit": "%"},
      {"measurement": "viability, T/C", "setting": "[31]", "value": 1.37, "unit": "%"},
      {"measurement": "viability, T/C", "setting": "[32]", "value": 1.18, "unit": "%"},
      {"measurement": "viability, T/C", "setting": "[33]", "value": 1.28, "unit": "%"},
      {"measurement": "viability, T/C", "setting": "[34]", "value": 1.44, "unit": "%"},
      {"measurement": "viability, T/C", "setting": "[35]", "value": 1.61, "unit": "%"},
      {"measurement": "viability, T/C", "setting": "[36]", "value": 1.51, "unit": "%"}
    ]},
    {"smiles": "CC1(C)CCC(Nc2ncc(C(F)(F)F)c(-c3c[nH]c4c(P(C)(C)=O)c(C#N)ccc34)n2)CN1", "note": "(centres undefined) + COc1c(OCCCN2CCOCC2)ccc2c3n(c(=NC(=O)c4cnc(N)nc4)nc12)CCN3", "values": [
      {"measurement": "IC50", "setting": "second compound 0.00316 µM", "value": "< 31.6", "unit": "nM"},
      {"measurement": "IC50", "setting": "second compound 0.01 µM", "value": "< 31.6", "unit": "nM"},
      {"measurement": "IC50", "setting": "second compound 0.0316 µM", "value": "< 31.6", "unit": "nM"},
      {"measurement": "IC50", "setting": "second compound 0.1 µM", "value": "< 31.6", "unit": "nM"},
      {"measurement": "IC50", "setting": "second compound 0.316 µM", "value": "< 31.6", "unit": "nM"},
      {"measurement": "IC50", "setting": "second compound 1 µM", "value": "< 31.6", "unit": "nM"},
      {"measurement": "viability, T/C", "setting": "[1]", "value": 36.8, "unit": "%"},
      {"measurement": "viability, T/C", "setting": "[2]", "value": 34.2, "unit": "%"},
      {"measurement": "viability, T/C", "setting": "[3]", "value": 40.7, "unit": "%"},
      {"measurement": "viability, T/C", "setting": "[4]", "value": 34.8, "unit": "%"},
      {"measurement": "viability, T/C", "setting": "[5]", "value": 39.8, "unit": "%"},
      {"measurement": "viability, T/C", "setting": "[6]", "value": 16.6, "unit": "%"},
      {"measurement": "viability, T/C", "setting": "[7]", "value": 27, "unit": "%"},
      {"measurement": "viability, T/C", "setting": "[8]", "value": 28.9, "unit": "%"},
      {"measurement": "viability, T/C", "setting": "[9]", "value": 29.9, "unit": "%"},
      {"measurement": "viability, T/C", "setting": "[10]", "value": 30.5, "unit": "%"},
      {"measurement": "viability, T/C", "setting": "[11]", "value": 33.6, "unit": "%"},
      {"measurement": "viability, T/C", "setting": "[12]", "value": 12.6, "unit": "%"},
      {"measurement": "viability, T/C", "setting": "[13]", "value": 21.4, "unit": "%"},
      {"measurement": "viability, T/C", "setting": "[14]", "value": 17.6, "unit": "%"},
      {"measurement": "viability, T/C", "setting": "[15]", "value": 18.2, "unit": "%"},
      {"measurement": "viability, T/C", "setting": "[16]", "value": 24.8, "unit": "%"},
      {"measurement": "viability, T/C", "setting": "[17]", "value": 23.9, "unit": "%"},
      {"measurement": "viability, T/C", "setting": "[18]", "value": 7.84, "unit": "%"},
      {"measurement": "viability, T/C", "setting": "[19]", "value": 13.5, "unit": "%"},
      {"measurement": "viability, T/C", "setting": "[20]", "value": 12.1, "unit": "%"},
      {"measurement": "viability, T/C", "setting": "[21]", "value": 13.2, "unit": "%"},
      {"measurement": "viability, T/C", "setting": "[22]", "value": 13.9, "unit": "%"},
      {"measurement": "viability, T/C", "setting": "[23]", "value": 15, "unit": "%"},
      {"measurement": "viability, T/C", "setting": "[24]", "value": 2.98, "unit": "%"},
      {"measurement": "viability, T/C", "setting": "[25]", "value": 3.97, "unit": "%"},
      {"measurement": "viability, T/C", "setting": "[26]", "value": 3.68, "unit": "%"},
      {"measurement": "viability, T/C", "setting": "[27]", "value": 3.96, "unit": "%"},
      {"measurement": "viability, T/C", "setting": "[28]", "value": 5.01, "unit": "%"},
      {"measurement": "viability, T/C", "setting": "[29]", "value": 4.34, "unit": "%"},
      {"measurement": "viability, T/C", "setting": "[30]", "value": 0.66, "unit": "%"},
      {"measurement": "viability, T/C", "setting": "[31]", "value": 0.85, "unit": "%"},
      {"measurement": "viability, T/C", "setting": "[32]", "value": 0.74, "unit": "%"},
      {"measurement": "viability, T/C", "setting": "[33]", "value": 0.9, "unit": "%"},
      {"measurement": "viability, T/C", "setting": "[34]", "value": 0.76, "unit": "%"},
      {"measurement": "viability, T/C", "setting": "[35]", "value": 0.9, "unit": "%"},
      {"measurement": "viability, T/C", "setting": "[36]", "value": 0.33, "unit": "%"}
    ]}
  ]
}
